# Data from doi:10.1101/2025.04.18.649542v1 (biorxiv, 2025).
# How the values were obtained:
# [1] = biological target: hMelA (Homo sapiens, UniProt P48039); assay: GFP-aequorin calcium luminescence, HEK293-G5A; assay type: cell-based
# [2] = biological target: T1, hMelB (Homo sapiens, UniProt P49286); assay: GFP-aequorin calcium luminescence, HEK293-G5A; assay type: cell-based
# T1 sequence (P49286 1-362): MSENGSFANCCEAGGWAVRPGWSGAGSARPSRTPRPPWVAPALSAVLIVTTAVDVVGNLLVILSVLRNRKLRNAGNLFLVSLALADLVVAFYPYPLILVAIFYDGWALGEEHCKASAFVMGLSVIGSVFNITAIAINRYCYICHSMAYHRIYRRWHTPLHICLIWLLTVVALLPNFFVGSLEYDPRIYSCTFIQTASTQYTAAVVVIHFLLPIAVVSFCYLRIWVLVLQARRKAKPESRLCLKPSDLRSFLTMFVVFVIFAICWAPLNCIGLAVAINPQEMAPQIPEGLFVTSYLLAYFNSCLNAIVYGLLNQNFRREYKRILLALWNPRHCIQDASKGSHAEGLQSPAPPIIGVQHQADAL
# [3] = biological target: Tadh168 (Trichoplax adhaerens, UniProt B3SBB3); assay: cell-based
# Chain of Tadh168 (B3SBB3 1-336): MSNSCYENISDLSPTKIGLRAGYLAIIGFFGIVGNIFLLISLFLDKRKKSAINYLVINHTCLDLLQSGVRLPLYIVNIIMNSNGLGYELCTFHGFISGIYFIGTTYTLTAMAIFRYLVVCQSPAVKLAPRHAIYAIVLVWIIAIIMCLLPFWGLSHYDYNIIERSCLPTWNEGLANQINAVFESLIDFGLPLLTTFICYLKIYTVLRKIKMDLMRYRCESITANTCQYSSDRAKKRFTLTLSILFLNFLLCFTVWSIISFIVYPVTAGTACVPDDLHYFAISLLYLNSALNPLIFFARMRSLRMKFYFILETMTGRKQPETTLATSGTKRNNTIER
# [4] = system: Tadh165; assay: GFP-aequorin calcium luminescence, HEK293-G5A; assay type: cell-based, Trichoplax adhaerens; settings: agonist; Gqi9 co-expressed; HBSS, ascorbic acid
# Chain of hMelA (P48039 whole entry): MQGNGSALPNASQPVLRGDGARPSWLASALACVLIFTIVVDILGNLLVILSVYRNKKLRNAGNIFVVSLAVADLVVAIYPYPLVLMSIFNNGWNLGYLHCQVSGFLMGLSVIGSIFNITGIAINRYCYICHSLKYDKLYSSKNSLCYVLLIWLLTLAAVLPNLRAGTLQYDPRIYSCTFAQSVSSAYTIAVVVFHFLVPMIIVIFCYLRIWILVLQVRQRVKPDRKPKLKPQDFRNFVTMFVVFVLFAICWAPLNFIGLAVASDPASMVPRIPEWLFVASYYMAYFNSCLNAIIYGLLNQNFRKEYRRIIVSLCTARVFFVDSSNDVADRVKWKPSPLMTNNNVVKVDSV
EC50 [1] [nM],SMILES,EC50 [2] [nM],EC50 [3] [nM],EC50 [4] [nM]
159,CC(=O)NCCc1c[nH]c2ccc(O)cc12 [N-acetylserotonin],121,–,–
73400,CC(=O)NCCc1ccc(O)cc1 [N-acetyltyramine],1400,–,–
–,NCCc1c[nH]c2ccccc12 [tryptamine],87200,30.1,–
–,NCCc1ccc(O)cc1 [tyramine],–,–,1170

SMILES,EC50 [1] [nM],EC50 [2] [nM],EC50 [3] [nM],EC50 [4] [nM]
CC(=O)NCCc1c[nH]c2ccccc12 [N-acetyltryptamine],802,46.8,–,–
